This passage reports TGI and GI50 results from PubChem BioAssay (NCI).

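Dose response: 5 concentrations. Exposure: 48 h. Format: 96-well plates. Endpoint: linear interpolation; highest concentration if not reached. GI50 = concentration required for 50% inhibition of growth. TGI: concentration producing complete growth inhibition.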 Where a SMILES comes first, the peptide text is derived from it. The star is where a group is joined. Boc = CC(C)(C)OC(=O)*

The subject of the first assay is NCI-H522 lung. In words: NCI-60 cell line screen, 48 h.
In turn, `N#CCCN(CCC#N)c1ccc(/C=C2\N=C(c3ccccc3)N(c3ccc(Cl)cc3)C2=O)cc1` returned a TGI above 100 µM.

The compound `Cc1c(S(=O)(=O)/N=C(\N)Nc2ccc(Cl)cc2)sc2ccc(Cl)cc12` gave a TGI of 30.1 µM.

Consider `CC12CC(=O)C3C(C(=O)C1)C32C` (centres undefined), for which the TGI is above 100 µM.

In the case of `COc1cc([N+](=O)[O-])c(OC)cc1-c1nc2sc(Cl)cn2c1/C=N/Nc1ccccn1`, the GI50 is above 50 µM and the TGI is above 50 µM.

Compound `CC(=O)N/N=C1\NC(=O)C[C@H]2[C@@H]3CC=C4C[C@@H](OC(C)=O)CC[C@]4(C)[C@H]3CC[C@]12C` had a TGI above 100 µM.

For `O=C1CN2C(c3ccccc3)=NN(c3ccc([N+](=O)[O-])cc3)C2(c2ccccc2)c2cc(Cl)ccc2N1CC1CC1` (centres undefined), the TGI is above 100 µM.

`COc1ccc2nc3cc(Cl)ccc3c(NCCCNCCCNc3c4ccc(Cl)cc4nc4ccc(OC)cc34)c2c1` came in with a TGI of 0.114 µM.

Consider `c1ccc2sc(SCSc3nc4ccccc4s3)nc2c1`, for which the TGI is above 100 µM.

As for `O=c1oc(-c2ccc(O)c(O)c2)cc2cccc(O)c12`, the TGI is above 50.8 µM.

Consider `COc1cc2c(cc1-c1c(C)noc1C)cc(C)c(=O)n2Cc1ccccn1`, for which the GI50 was 0.542 µM and the TGI turned out to be 10.9 µM.

`CCOC(=O)c1c(-c2ccc(OC)cc2)c(C#N)c(=S)n(C2OC(COC(C)=O)C(OC(C)=O)C(OC(C)=O)C2OC(C)=O)c1C` (centres undefined) had a TGI above 100 µM.

`O=C(CCCN1CCC2(CC1)CC(=O)N(N1CCOCC1)C2=O)c1ccccc1` showed a TGI above 100 µM.

`CCOC(=N)n1c(=O)n(C2=NCCN2)c2ccccc21`: the TGI is above 100 µM.

`O=C(NCCN1CCOCC1)c1ccc2cc(C(=O)N3CC(CCl)c4ccc([N+](=O)[O-])cc43)[nH]c2c1` (centres undefined) displayed a TGI of 39.7 µM.

`CSc1cc(Cl)c(C)cc1S(=O)(=O)NC(=O)NNc1ccc(Cl)cc1` showed a TGI above 100 µM.

As for `O=C(CNc1ccccc1Cl)Nn1c(-c2ccccc2)nc2ccccc2c1=O`, the TGI was above 10 µM.

In turn, `Cc1cc2[nH]c3[nH]c(=O)[nH]c(=O)c3c2cc1C` returned a TGI above 100 µM.

The compound `C/C=C/C=C/c1nc(C#N)c(N)o1` gave a TGI above 100 µM.

On to `CC(C)(C)OC(=O)NCC(=O)NCC(=O)NCC(=O)NCC(=O)O` (Boc-GGGG-OH), for which the TGI was above 100 µM.

`COc1ccc(CC(O)CN2CCOCC2)cc1` (centres undefined): the TGI is above 100 µM.

The compound `COc1cc(C2SCC(=O)N2c2ccc(NC(=O)c3ccc(N4C(=O)CSC4c4cc(OC)c(OC)c(OC)c4)cc3)cc2)cc(OC)c1OC` (centres undefined) displayed a TGI above 100 µM.

Turning to `N#C/C(=C\c1cc(Br)c(O)c(Br)c1)c1cccnc1`, the TGI was above 100 µM.

The test system of a further assay is HS 578T breast. In words: NCI-60 cell line screen, 48 h.
Compound `c1ccc2c(c1)NC(C1OC3CCCN3C1C1Nc3ccccc3S1)S2` (centres undefined) displayed a TGI above 100 µM.

`COc1nc(C#CCC(C)O)nc(OC)n1` (centres undefined) returned a TGI of 72 µM.

`O=C1C[C@H](Sc2ccccc2)C2(OCCO2)[C@@H](Sc2ccccc2)C1` yielded a TGI of 5.85 µM.

The compound `Cc1c2c(n(CCc3ccc(Cl)cc3)c1C)NN=C(C#N)S2(=O)=O` yielded a TGI above 100 µM.

On to `COc1ccc2cc(-c3ccc(-c4ccc(C(=N)N)s4)s3)ccc2c1`, for which the GI50 is 16.6 µM and the TGI was 50 µM.

`N#CCCN(CCC#N)c1ccc(/C=C2\N=C(c3ccccc3)N(c3ccc(Cl)cc3)C2=O)cc1` displayed a TGI of 86.8 µM.

`Cc1c(S(=O)(=O)/N=C(\N)Nc2ccc(Cl)cc2)sc2ccc(Cl)cc12` registered a TGI of 59 µM.

Consider `COc1cc([N+](=O)[O-])c(OC)cc1-c1nc2sc(Cl)cn2c1/C=N/Nc1ccccn1`, for which the GI50 was 16.8 µM and the TGI is above 50 µM.

As to `CC(=O)N/N=C1\NC(=O)C[C@H]2[C@@H]3CC=C4C[C@@H](OC(C)=O)CC[C@]4(C)[C@H]3CC[C@]12C`, the TGI is 88.6 µM.

Consider `O=C1CN2C(c3ccccc3)=NN(c3ccc([N+](=O)[O-])cc3)C2(c2ccccc2)c2cc(Cl)ccc2N1CC1CC1` (centres undefined), for which the TGI is above 100 µM.

On to `c1ccc2sc(SCSc3nc4ccccc4s3)nc2c1`, for which the TGI was above 100 µM.

In turn, `O=c1oc(-c2ccc(O)c(O)c2)cc2cccc(O)c12` displayed a TGI of 73.2 µM.

Regarding `COc1cc2c(cc1-c1c(C)noc1C)cc(C)c(=O)n2Cc1ccccn1`, the GI50 is 0.318 µM and the TGI is 13.3 µM.

For the compound `O=[N+]([O-])/C(C(Cl)=C(Cl)Cl)=C(\Nc1cccc2cccnc12)SCc1ccccc1`, the TGI worked out at 19.3 µM.

Turning to `O=C(NCCN1CCOCC1)c1ccc2cc(C(=O)N3CC(CCl)c4ccc([N+](=O)[O-])cc43)[nH]c2c1` (centres undefined), the TGI came to 52.4 µM.

The compound `CSc1cc(Cl)c(C)cc1S(=O)(=O)NC(=O)NNc1ccc(Cl)cc1` showed a TGI above 100 µM.

`O=C(CNc1ccccc1Cl)Nn1c(-c2ccccc2)nc2ccccc2c1=O`: the TGI came to 89.5 µM.

Turning to `Cc1cc2[nH]c3[nH]c(=O)[nH]c(=O)c3c2cc1C`, the TGI was above 100 µM.

On to `C/C=C/C=C/c1nc(C#N)c(N)o1`, for which the TGI was above 100 µM.

Regarding `O=c1c2ccccc2nc2[nH][nH]c(=S)n12`, the TGI is above 100 µM.

`CC(C)(C)OC(=O)NCC(=O)NCC(=O)NCC(=O)NCC(=O)O` (Boc-GGGG-OH) yielded a TGI above 100 µM.

For the compound `COc1ccc(CC(O)CN2CCOCC2)cc1` (centres undefined), the TGI was above 100 µM.

The compound `COc1cc(C2SCC(=O)N2c2ccc(NC(=O)c3ccc(N4C(=O)CSC4c4cc(OC)c(OC)c(OC)c4)cc3)cc2)cc(OC)c1OC` (centres undefined) gave a TGI above 100 µM.

The test system of another assay is RPMI-8226 leukemia. The experiment in a line: NCI-60 cell line screen, 48 h.
Compound `CS(=O)(=O)OCCn1c(=O)n(CCOS(C)(=O)=O)c(=O)n(CCOS(C)(=O)=O)c1=O` registered a TGI above 100 µM.

Compound `c1ccc2c(c1)NC(C1OC3CCCN3C1C1Nc3ccccc3S1)S2` (centres undefined) displayed a TGI of 76.3 µM.

`CC(C)(C)NC(=O)/C(=C\Sc1ccccc1)c1ccc2c(c1)OCO2` had a TGI of 94.4 µM.

Turning to `Cc1c2c(n(CCc3ccc(Cl)cc3)c1C)NN=C(C#N)S2(=O)=O`, the TGI is above 100 µM.

Take `CCN(C(=S)N[C@@H](Cc1ccccc1)C(=O)N[C@@H](CC(C)C)C(=O)OC)c1ccccc1`: the TGI was above 100 µM.

As for `COc1ccc2cc(-c3ccc(-c4ccc(C(=N)N)s4)s3)ccc2c1`, the GI50 is 2.16 µM and the TGI amounted to 5.06 µM.

`N#CCCN(CCC#N)c1ccc(/C=C2\N=C(c3ccccc3)N(c3ccc(Cl)cc3)C2=O)cc1`: the TGI is above 100 µM.

`Cc1c(S(=O)(=O)/N=C(\N)Nc2ccc(Cl)cc2)sc2ccc(Cl)cc12` showed a TGI above 100 µM.

Consider `CC12CC(=O)C3C(C(=O)C1)C32C` (centres undefined), for which the TGI was above 100 µM.

In the case of `COc1cc([N+](=O)[O-])c(OC)cc1-c1nc2sc(Cl)cn2c1/C=N/Nc1ccccn1`, the GI50 is 30.1 µM and the TGI was above 50 µM.

`CC(=O)N/N=C1\NC(=O)C[C@H]2[C@@H]3CC=C4C[C@@H](OC(C)=O)CC[C@]4(C)[C@H]3CC[C@]12C` showed a TGI above 100 µM.

Turning to `O=C1CN2C(c3ccccc3)=NN(c3ccc([N+](=O)[O-])cc3)C2(c2ccccc2)c2cc(Cl)ccc2N1CC1CC1` (centres undefined), the TGI was above 100 µM.
